Molecules are shown by their SMILES.

The assay addresses T1, ligand binding domain of human ROR gamma (Homo sapiens, UniProt P51449).
T1 construct: NM_001001523; expressed in transfected cells; host or cells: HEK293T
T1 sequence (P51449 247-497 isoform P51449-2): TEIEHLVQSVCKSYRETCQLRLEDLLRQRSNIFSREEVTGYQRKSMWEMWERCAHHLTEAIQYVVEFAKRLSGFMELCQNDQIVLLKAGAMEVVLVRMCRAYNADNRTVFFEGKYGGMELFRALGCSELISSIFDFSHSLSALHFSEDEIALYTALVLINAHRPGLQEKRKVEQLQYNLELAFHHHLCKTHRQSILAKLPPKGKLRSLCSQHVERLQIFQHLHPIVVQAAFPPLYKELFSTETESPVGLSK
Kind of assay: ROR gamma reporter gene assay (GAL4-RORγ LBD luciferase, Dual-Glo). Format: cell-based. The conditions noted are these: HEK293T cells transfected with pM-ROR gamma, 8 concentrations 3.5 nM to 10.5 μM, 24 h incubation; read-out: result (pIC50, inhibition of RORγ transcriptional activity) (converted). An outline of the steps: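 Inhibition of RORγ-driven transcription was measured in HEK293T cells expressing a GAL4 fusion of the human RORγ LBD (aa 247-497), with renilla luciferase as internal control. Cells in 10% charcoal-stripped serum received compound (3.5 nM–10.5 μM) for 24 h.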
(In a reporter assay the amount or activity of a reporter protein is the signal.)
Take `O=C(CN(Cc1cc(F)cc(F)c1)C(=O)c1cnn([C@H]2CC[C@H](C(=O)O)CC2)c1C(F)(F)F)c1c(Cl)cc(O)cc1Cl` [Example 70, trans-4-(4-((2-(2,6-dichloro-4-hydroxyphenyl)-2-oxoethyl)(3,5-difluorobenzyl)carbarnoyl)-5-(trifluoromethyl)-1H-pyrazol-1-yl)cyclohexanecarboxylic acid]: the IC50 is greater than 1e+07 pM.
With `O=C(CN(CC1CCOCC1)C(=O)c1cnn([C@H]2CC[C@H](C(=O)O)CC2)c1C(F)(F)F)c1c(Cl)cncc1Cl` [Example 71, trans-4-(4-((2-(3,5-dichloropyridin-4-yl)-2-oxoethyl)((tetrahydro-2H-pyran-4-yl)methyl)carbamoyl)-5-(trifluoromethyl)-1H-pyrazol-1-yl)cyclohexanecarboxylic acid] the figure was 2.09e+06 pM; with `O=C(CN(CC1CC1)C(=O)c1cnn([C@H]2CC[C@H](C(=O)O)CC2)c1C(F)(F)F)c1c(Cl)cncc1Cl` [Example 72, trans-4-(4-((cyclopropylmethyl)(2-(3,5-dichloropyridin-4-yl)-2-oxoethyl)carbamoyl)-5-(trifluoromethyl)-1H-pyrazol-1-yl)cyclohexanecarboxylic acid], 1.32e+06 pM; with `CC(C)(F)CN(CC(=O)c1c(Cl)cncc1Cl)C(=O)c1cnn([C@H]2CC[C@H](C(=O)O)CC2)c1C(F)(F)F` [Example 73, trans-4-(4-((2-(3,5-dichloropyridin-4-yl)-2-oxoethyl)(2-fluoro-2-methylpropyl)carbamoyl)-5-(trifluoromethyl)-1H-pyrazol-1-yl)cyclohexanecarboxylic acid], 646000 pM.
With `COC(C)(C)CN(CC(=O)c1c(Cl)cncc1Cl)C(=O)c1cnn([C@H]2CC[C@H](C(=O)O)CC2)c1C(F)(F)F` [Example 74, trans-4-(4-((2-(3,5-dichloropyridin-4-yl)-2-oxoethyl)(2-methoxy-2-methylpropyl)carbamoyl)-5-(trifluoromethyl)-1H-pyrazol-1-yl)cyclohexanecarboxylic acid] the figure was 263000 pM.
With `O=C(CN(CC(F)(F)F)C(=O)c1cnn([C@H]2CC[C@H](C(=O)O)CC2)c1C(F)(F)F)c1c(Cl)cncc1Cl` [Example 75, trans-4-(4-((2-(3,5-dichloropyridin-4-yl)-2-oxoethyl)(2,2,2-trifluoroethyl)carbamoyl)-5-(trifluoromethyl)-1H-pyrazol-1-yl)cyclohexanecarboxylic acid] the figure was 316000 pM; with `O=C(CN(Cc1ccncc1)C(=O)c1cnn([C@H]2CC[C@H](C(=O)O)CC2)c1C(F)(F)F)c1c(Cl)cncc1Cl` [Example 76, trans-4-(4-((2-(3,5-dichloropyridin-4-yl)-2-oxoethyl)(pyridin-4-ylmethyl)carbamoyl)-5-(trifluoromethyl)-1H-pyrazol-1-yl)cyclohexanecarboxylic acid], 1.7e+06 pM; with `C[C@]1(C(=O)O)CC[C@H](n2ncc(C(=O)N(CC(=O)c3c(Cl)cncc3Cl)Cc3ccc(F)cc3)c2C(F)(F)F)CC1` [Example 77, trans-4-(4-((2-(3,5-dichloropyridin-4-yl)-2-oxoethyl)(4-fluorobenzyl)carbamoyl)-5-(trifluoromethyl)-1H-pyrazol-1-yl)-1-methylcylohexanecarboxylic acid], 33900 pM.
Turning to `C[C@]1(C(=O)O)CC[C@H](n2ncc(C(=O)N(CC(=O)c3c(Cl)cncc3Cl)Cc3cc(F)cc(F)c3)c2C(F)(F)F)CC1` [Example 78, trans-4-(4-((2-(3,5-dichloropyridin-4-yl)-2-oxoethyl)(3,5-difluorobenzyl)carbamoyl)-5-(trifluoromethyl)-1H-pyrazol-1-yl)-1-methylcyclohexanecarboxylic acid], the IC50 is 10000 pM.
With `C[C@]1(C(=O)O)CC[C@@H](n2ncc(C(=O)N(CC(=O)c3c(Cl)cncc3Cl)Cc3ccc(F)cc3)c2C(F)(F)F)CC1` [Example 79, trans-4-(4-((2-(3,5-dichloropyridin-4-yl)-2-oxoethyl)(4-fluorobenzyl)carbamoyl)-5-(trifluoromethyl)-1H-pyrazol-1-yl)-1-methylcyclohexanecarboxylic acid] the figure was 209000 pM; with `O=C(CN(Cc1ccc(F)cc1)C(=O)c1cnn([C@H]2CC[C@@](F)(C(=O)O)CC2)c1C(F)(F)F)c1c(Cl)cncc1Cl` [Example 80, trans-4-(4-((2-(3,5-dichloropyridin-4-yl)-2-oxoethyl)(4-fluorobenzyl)carbamoyl)-5-(trifluoromethyl)-1H-pyrazol-1-yl)-1-fluorocyclohexanecarboxylic acid], 661000 pM.
As to `O=C(CN(Cc1ccc(F)cc1)C(=O)c1cnn([C@H]2CC[C@](F)(C(=O)O)CC2)c1C(F)(F)F)c1c(Cl)cncc1Cl` [Example 81, cis-4-(4-((2-(3,5-dichloropyridin-4-yl)-2-oxoethyl)(4-fluorobenzyl)carbamoyl)-5-(trifluoromethyl)-1H-pyrazol-1-yl)-1-fluorocyclohexanecarboxylic acid], the IC50 was 93300 pM.
On to `O=C(CN(Cc1ccc(F)cc1)C(=O)c1cnn([C@H]2C[C@H](C(=O)O)C2)c1C(F)(F)F)c1c(Cl)cncc1Cl` [Example 82, trans-3-(4-((2-(3,5-dichloropyridin-4-yl)-2-oxoethyl)(4-fluorobenzyl)carbarnoyl)-5-(trifluoromethyl)-1H-pyrazol-1-yl)cyclobutanecarboxylic acid], for which the IC50 is 81300 pM.
Regarding `CC(F)(F)c1c(C(=O)N(CC(=O)c2c(Cl)cncc2Cl)Cc2ccc(F)cc2)cnn1[C@H]1CC[C@H](C(=O)O)CC1` [Example 84, trans-4-(4-((2-(3,5-dichloropyridin-4-yl)-2-oxoethyl)(4-fluorobenzyl)carbamoyl)-5-(1,1-difluoroethyl)-1H-pyrazol-1-yl)cyclohexanecarboxylic acid], the IC50 was 107000 pM.
As for `O=C(CN(Cc1cc(F)cc(F)c1)C(=O)c1cnn([C@H]2CC[C@H](O)CC2)c1C(F)(F)F)c1c(Cl)cncc1Cl` [Example 85, N-(2-(3,5-dichloropyridin-4-yl)-2-oxoethyl)-N-(3,5-difluorobenzyl)-1-(trans-4-hydroxycyclohexyl)-5-(trifluoromethyl)-1H-pyrazole-4-carboxamide], the IC50 is 1.48e+06 pM.
On to `C[S+](=O)([O-])[C@H]1CC[C@@H](n2ncc(C(=O)N(CC(=O)c3c(Cl)cncc3Cl)Cc3ccc(F)cc3)c2C(F)(F)F)CC1` [Example 86, N-(2-(3,5-dichloropyridin-4-yl)-2-oxoethyl)-N-(4-fluorobenzyl)-1-(cis-4-(methylsulfonyl)cyclohexyl)-5-(trifluoromethyl)-1H-pyrazole-4-carboxamide], for which the IC50 is 162000 pM.
Regarding `C[S+](=O)([O-])[C@H]1CC[C@H](n2ncc(C(=O)N(CC(=O)c3c(Cl)cncc3Cl)Cc3ccc(F)cc3)c2C(F)(F)F)CC1` [Example 87, N-(2-(3,5-dichloropyridin-4-yl)-2-oxoethyl)-N-(4-fluorobenzyl)-1-(trans-4-(methylsulfonyl)cyclohexyl)-5-(trifluoromethyl)-1H-pyrazole-4-carboxamide], the IC50 is 141000 pM.
For the molecule `NC(=O)[C@H]1CC[C@H](n2ncc(C(=O)N(CC(=O)c3c(Cl)cncc3Cl)Cc3ccc(F)cc3)c2C(F)(F)F)CC1` [Example 88, l-(trans-4-carbamoylcyclohexyl)-N-(2-(3,5-dichloropyridin-4-yl)-2-oxoethyl)-N-(4-fluorobenzyl)-5-(trifluoromethyl)-1H-pyrazole-4-carboxamide], the IC50 is 87100 pM.
With `O=C(CN(Cc1ccc(F)cc1)C(=O)c1cnn([C@H]2CC[C@H](C(=O)NCCO)CC2)c1C(F)(F)F)c1c(Cl)cncc1Cl` [Example 89, N-(2-(3,5-dichloropyridin-4-yl)-2-oxoethyl)-N-(4-fluorobenzyl)-1-(trans-4-((2-hydroxyethyl)carbamoyl)cyclohexyl)-5-(trifluoromethyl)-1H-pyrazole-4-carboxamide] the figure was 1.38e+06 pM; with `O=C(c1cnn([C@H]2CC[C@H](C(=O)O)CC2)c1C(F)(F)F)N(Cc1ccc(F)cc1)CC(O)c1c(Cl)cncc1Cl` (stereo partly drawn) [Example 90, trans-4-(4-((2-(3,5-dichloropyridin-4-yl)-2-hydroxyethyl)(4-fluorobenzyl)carbamoyl)-5-(trifluoromethyl)-1H-pyrazol-1-yl)cyclohexanecarboxylic acid], 501000 pM; with `O=C(c1cnn([C@H]2CC[C@H](C(=O)O)CC2)c1C(F)(F)F)N(Cc1ccc(F)cc1)CC(F)c1c(Cl)cccc1Cl` (stereo partly drawn) [Example 91, trans-4-(4-((2-(2,6-dichlorophenyl)-2-fluoroethyl)(4-fluorobenzyl)carbamoyl) (trifluoromethyl)-1H-pyrazol-1-yl)cyclohexanecarboxylic acid], 4370 pM.
In the case of `O=C(CN(Cc1ccc(F)cc1)C(=O)c1cnn([C@H]2CC[C@H](C(=O)O)C2)c1C(F)(F)F)c1c(Cl)cncc1Cl` [Example 92, (1S,3S)-3-(4-((2-(3,5-dichloropyridin-4-yl)-2-oxoethyl)-((4-fluorophenyl)methyl)carbamoyl)-5-(trifluoromethyl)pyrazol-1-yl)cyclopentane-1-carboxylic acid], the IC50 is 155000 pM.
As for `CC(C)(C)CN(CC(=O)c1c(Cl)cc(F)cc1Cl)C(=O)c1cnn([C@H]2CC[C@](C)(C(=O)O)CC2)c1C(F)(F)F` [Example 94, trans-4-(4-((2-(2,6-dichloro-4-fluorophenyl)-2-oxoethyl)-(2,2-dimethylpropyl)carbamoyl)-5-(trifluoromethyl)pyrazol-1-yl)-1-methylcyclohexane-1-carboxylic acid], the IC50 was 8320 pM.

The values above are taken from patent US9365522B2, “Pyrazole amide derivative” (AMGEN INC., priority 2015, dated 2016).
